Laboratory results: patent US20230149409A1, “TREATMENT OF HUMAN PAPILLOMAVIRUS-ASSOCIATED CANCERS BY PD-L1 INHIBITORS” (priority 2021, published 2023)

How the values were obtained:
[1] = test system: PD-L1 (PD-L1 aAPC/CHO-K1 cells, Jurkat-PD-1-NFAT effector cells); test: Nuclear Factor of Activated T-cells (NFAT) assay; type: cell-based; conditions: Cricetulus griseus; PD-L1 aAPC/CHO-K1 + Jurkat-PD-1-NFAT cells, 24 hours
Procedure: Nuclear Factor of Activated T-cells (NFAT) Assay
PD-L1 aAPC/CHO-K1cells (Promega) were maintained in F-12 medium with addition of 10% FBS, 200 µg/mL Hygromycin B, 250 µg/mL Geneticin (G418). […] The culture media of PD-L1 aAPC/CHO-K1 cells were first replaced with assay medium (RPMI1640 medium with 1% FBS). The PD-L1 aAPC/CHO-K1cells were then added in a white 384-well white clear bottom assay plate (CELLCOAT® Tissue Culture Plates, Greiner Bio-One) at 8000 per well in 10 uL assay medium. […] 5 uL compounds in the assay medium were transferred to the cells with 0.4% DMSO in the final assay at 2 µM. After removing the culture media, 10,000 Jurkat-PD-1-NFAT effector cells in 5 µL assay medium was dispensed into each well. The assay plate was incubated at 37° C., 5% CO2 for 24 hours. […] After 8 minutes incubation at room temperature, luminescence was read at with Pherastar microplate reader (BMG Labtech). The fold of induction (FOI) was calculated based on the ratio of luminescence normalized to the DMSO wells within each assay plate. The maximum percentage of induction was reported based on the ratio between the highest FOI of each compound and the maximum FOI of control compound within each assay plate. Wells with DMSO were served as the negative controls and wells containing control compound with the highest FOI were used as positive controls. EC50 determination was performed by fitting the curve of percent control activity versus the log of the compound concentration using the GraphPad Prism 6.0 software.

[2] = test system: PD-L1 (U2OS/PD-L1 cells, Jurkat-PD-1-SHP cells); test: Src Homology Region 2 Domain-containing Phosphatase (SHP) assay; type: cell-based; conditions: Homo sapiens; U2OS/PD-L1 + Jurkat-PD-1-SHP cells, 2 hours
Procedure: Example 1B. Src Homology Region 2 Domain-containing Phosphatase (SHP) Assay
U2OS/PD-L1 cells (DiscoveRx Corporation) were maintained in McCoy’s 5A medium with addition of 10% FBS, 0.25 µg/mL Puromycin. After removing the culture media, the cell medium was replaced with assay medium (RPMI1640 medium with 1% FBS). The U2OS/PD-L1 cells were then added in 384-well black clear bottom assay plate (CELLCOAT® Tissue Culture Plates, Greiner Bio-One) at 5000 cells per well in 20 uL assay medium. Test compounds were prepared by serial dilution in DMSO and 125 nL compound were first transferred to the 384 REMP plate well (Thermofisher) by ECHO liquid handler (Labcyte) followed with addition of 27.5 uL assay medium. 5 µL/well compounds in the assay medium were transferred to the cell plate with 0.05% DMSO in the final assay at 0.25 µM. Jurkat-PD-1-SHP cells (DiscoveRx Corporation) were cultured in RPMI1640 medium supplemented with 10% FBS, 250 µg/mL Hygromycin B, 500 µg/mL G418. After the replacement of culture media with assay medium, 5,000 Jurkat-PD-1-SHP cells in 20 µL were dispensed into each well. The assay plate was incubated at 37° C., 5% CO2 for 2 hours before 2.5 uL PathHunter reagent 1 (DiscoveRx Corporation) were added to each well. The assay plate was shaken for 1 min at 350 rpm in the dark followed with addition of 10 uL PathHunter reagent 2 (DiscoveRx Corporation). Chemiluminescent signal was recorded with TopCount reader (Perkin Elmer) after incubation at room temperature for 1 hour. Wells with DMSO were served as the positive controls and wells containing no cells were used as negative controls. IC50 determination was performed by fitting the curve of percentage of control activity versus the log of the compound concentration using the GraphPad Prism 6.0 software.

[3] = molecular target: T1, PD-⅟PD-L1 (recombinant human PD-L1 protein and human PD-1 protein) (Homo sapiens, UniProt Q9NZQ7); test: Homogeneous Time-Resolved Fluorescence (HTRF) PD-1/PD-L1 binding assay; conditions: 3 nM PD1, 10 nM PD-L1, 25° C., PBS pH 7.4
T1 construct: Recombinant human PD-L1 protein (19-238) with a His-tag at the C-terminus; purchased AcroBiosystems PD1-H5229 (PD-L1); PD1-H5257 (PD-1)
Procedure: Homogeneous Time-Resolved Fluorescence (HTRF) PD-⅟PD-L1 Binding Assay
The assays were conducted in a standard black 384-well polystyrene plate with a final volume of 20 uL. Inhibitors were first serially diluted in DMSO and then added to the plate wells before the addition of other reaction components. The final concentration of DMSO in the assay was 1%. The assays were carried out at 25° C. in the PBS buffer (pH 7.4) with 0.05% Tween-20 and 0.1% BSA. […] PD-L1 and PD-1 proteins were diluted in the assay buffer and 10 uL was added to the plate well. Plates were centrifuged and proteins were preincubated with inhibitors for 40 minutes. The incubation was followed by the addition of 10 uL of HTRF detection buffer supplemented with Europium cryptate-labeled anti-human IgG (PerkinElmer-AD0212) specific for Fc and anti-His antibody conjugated to SureLight®-Allophycocyanin (APC, PerkinElmer-AD0059H). […] Final concentrations in the assay were - 3 nM PD1, 10 nM PD-L1, 1 nM europium anti-human IgG and 20 nM anti-His-Allophycocyanin. IC50 determination was performed by fitting the curve of percent control activity versus the log of the inhibitor concentration using the GraphPad Prism 5.0 software.

[4] = molecular target: T2, PD-L1 on CD14+ cells in human whole blood (Homo sapiens, UniProt Q9NZQ7); test: PD-L1 whole blood internalization assay; type: cell-based; conditions: 1 ng/mL interferon γ, CD14+ gated, 24 hour
T2 construct: Cells were gated on CD14+ (BD Biosciences) and PD-L1 expression determined by mean fluorescence intensity; host or cells: CD14+ cells in normal human whole blood, stimulated with human interferon gamma
Procedure: PD-L1 Whole Blood Internalization Assay
To determine PD-L1 internalization in human whole blood, normal human blood (Biological Specialty Corp, Colmar. PA) was incubated in the presence or absence of a concentration range of test compounds and 1 ng/mL human interferon γ (R&D Systems Inc. Minn. MN) in a 96 well “2 mL Assay Block” (Corning, Corning NY) for 18-20 hours at 37 °C. Blood was then stained with PD-L1 (MIH1, eBioscience; or BD Biosciences San Jose, CA), CD14 (Life Technologies, Carlsbad, CA) for 30 minutes in the dark at room temperature. Whole Blood/red cells were lysed/fixed (lysis buffer BD Biosciences) for 5 minutes at 37 °C in the dark and then centrifuged at 1600 RPM for 5 minutes. Cells were resuspended in Stain Buffer (BD Bioscience, San Jose, CA) and transferred into 96 well round bottom plates (Coming). Cells were gated on CD14+ (BD Biosciences) and PD-L1 expression determined by mean fluorescence intensity (MFI) (BD LSRFortessa® X-20). IC50 determination was performed by fitting the curve of compound percent inhibition versus the log of the compound concentration using the GraphPad Prism 7.0 software.

T1 sequence (Q9NZQ7 19-238): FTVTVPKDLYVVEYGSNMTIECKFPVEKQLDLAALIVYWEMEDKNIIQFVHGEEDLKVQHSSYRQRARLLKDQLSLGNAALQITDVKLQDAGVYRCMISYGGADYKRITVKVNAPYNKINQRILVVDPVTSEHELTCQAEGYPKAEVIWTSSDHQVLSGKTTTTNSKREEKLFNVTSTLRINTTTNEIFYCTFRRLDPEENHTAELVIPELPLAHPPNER
T2 sequence (Q9NZQ7 19-290): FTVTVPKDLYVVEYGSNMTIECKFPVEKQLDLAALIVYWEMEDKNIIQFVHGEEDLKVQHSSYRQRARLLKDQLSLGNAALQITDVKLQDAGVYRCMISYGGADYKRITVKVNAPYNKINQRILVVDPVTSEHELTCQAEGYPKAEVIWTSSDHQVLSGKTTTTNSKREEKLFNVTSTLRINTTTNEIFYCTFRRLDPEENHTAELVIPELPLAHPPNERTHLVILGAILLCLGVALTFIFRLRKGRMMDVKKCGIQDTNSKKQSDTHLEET

`Cc1c(-c2nc3c(Cl)cc(CNCCO)cn3n2)cccc1-c1cccc(NC(=O)c2ccc(CNCCO)cn2)c1Cl` [Compound 2, N-(2-chloro-3′-(8-chloro-6-((2-hydroxyethylamino)methyl)-[1,2,4]triazolo[1,5-a]pyridin-2-yl)-2′-methylbiphenyl-3-yl)-5-((2-hydroxyethylamino)methyl)picolinamide] was tested, and the EC50 [1] was < 500 nM, the IC50 [2] was < 100 nM and the IC50 [3] was < 10 nM.

`Cc1c(NC(=O)c2ccc(CNCCO)cn2)cccc1-c1cccc(NC(=O)c2ccc(CNCCO)cn2)c1Cl` [Compound 7, N,N′-(2-chloro-2′-methylbiphenyl-3,3′-diyl)bis(5-((2-hydroxyethylamino)methyl)picolinamide)] was tested, and the EC50 [1] was < 100 nM, the IC50 [4] was < 10 nM and the IC50 [2] was < 10 nM. The IC50 [3] was < 10 nM.

For `Cc1c(NC(=O)c2ccc(CN3CCC(C(=O)O)CC3)cn2)cccc1-c1cccc(NC(=O)c2ccc(CN3CC[C@@H](O)C3)cn2)c1Cl` [Compound 8, (R)-1-((6-(2′-chloro-3′-(5-((3-hydroxypyrrolidin-1-yl)methyl)picolinamido)-2-methylbiphenyl-3-ylcarbamoyl)pyridin-3-yl)methyl)piperidine-4-carboxylic acid], the EC50 [1] was < 100 nM, the IC50 [2] was < 100 nM and the IC50 [3] was < 10 nM.

With `Cc1cc(C(=O)Nc2cccc(-c3cccc(NC(=O)c4ccc(CN5CCCC5)cn4)c3Cl)c2C)ncc1CN1CCCC[C@H]1C(=O)O` [Compound 9, (S)-1-((6-((2′-chloro-2-methyl-3′-(5-(pyrnolidin-1-ylmethyl)picolinamido)-[1,1′-biphenyl]-3-yl)carbamoyl)-4-methylpyridin-3-yl)methyl)piperidine-2-carboxylic acid] the EC50 [1] was < 100 nM, the IC50 [2] was < 10 nM and the IC50 [3] was < 10 nM.

In the case of `Cc1c(Nc2nccc3cc(CN4CC[C@@H](O)C4)cnc23)cccc1-c1cccc(NC(=O)c2nc3c(n2C)CCN(CC[C@H]2CC[C@H](C(=O)O)CC2)C3)c1Cl` [Compound 10, trans 4-(2-(2-(2-chloro-3′-(3-(((R)-3-hydroxypyrrolidin-1-yl)methyl)-1,7-naphthyridin-8-ylamino)-2′-methylbiphenyl-3-ylcarbamoyl)-1-methyl-6,7-dihydro-1H-imidazo[4,5-c]pyridin-5(4H)-yl)ethyl)cyclohexanecarboxylic acid], the EC50 [1] is reported as < 100 nM, the IC50 [4] is reported as < 100 nM and the IC50 [2] is reported as < 10 nM. For the same compound, the IC50 [3] was < 10 nM.

For `Cc1c(Nc2ncnc3cc(CN4CC[C@@H](O)C4)cnc23)cccc1-c1cccc(NC(=O)c2nc3c(n2C)CCN(C2CCC(C)(C(=O)O)CC2)C3)c1Cl` (stereo partly shown) [Compound 12], the EC50 [1] was < 100 nM, the IC50 [4] was < 100 nM and the IC50 [2] was < 10 nM. For the same compound, the IC50 [3] was < 10 nM.

In the case of `Cc1c(NC(=O)c2nc3c(n2C)CCN(C[C@H]2CC[C@H](C(=O)O)CC2)C3)cccc1-c1cccc(NC(=O)c2nc3c(n2C)CCN(C)C3)c1Cl` [Compound 15, trans-4-((2-(2′-chloro-3′-(1,5-dimethyl-4,5,6,7-tetrahydro-1H-imidazo[4,5-c]pyfidine-2-caiboxamido)-2-methylbiphenyl-3-ylcarbamoyl)-1-methyl-6,7-dihydro-1H-imidazo[4,5-c]pyridin-5(4H)-yl)methyl)cyclohexane-1-carboxylic acid], the EC50 [1] is reported as < 100 nM, the IC50 [4] is reported as < 500 nM and the IC50 [2] is reported as < 10 nM. The IC50 [3] was < 10 nM.

For `Cc1c(NC(=O)c2nc3c(n2C)CCN(CC[C@H]2CC[C@H](C(=O)O)CC2)C3)cccc1-c1cccc(NC(=O)c2nc3c(n2C)CCN(C)C3)c1Cl` [Compound 16, trans-4-(2-(2-((2′-chloro-3′-(1,5-dimethyl-4,5,6,7-tetrahydro-1H-imidazo[4,5-c]pyfidine-2-caiboxamido)-2-methyl-[1,1′-biphenyl]-3-yl)caibamoyl)-1-methyl-1,4,6,7-tetrahydro-5H-imidazo[4,5-c]pyridin-5-yl)ethyl)cyclohexane-1-carboxylic acid], the EC50 [1] was < 100 nM, the IC50 [4] was < 100 nM and the IC50 [2] was < 10 nM. The IC50 [3] was < 10 nM.

In the case of `Cc1c(NC(=O)c2nc3c(n2C)CCN(C[C@H]2CC[C@@H](C(=O)O)CC2)C3)cccc1-c1cccc(NC(=O)c2nc3c(n2C)CCN(C)C3)c1Cl` [Compound 17, cis-4-((2-((2′-chloro-3′-(1,5-dimethyl-4,5,6,7-tetrahydro-1H-imidazo[4,5-c]pyfidine-2-caiboxamido)-2-methyl-[1,1′-biphenyl]-3-yl)caibamoyl)-1-methyl-1,4,6,7-tetrahydro-5H-imidazo[4,5-c]pyridin-5-yl)methyl)cyclohexane-1-carboxylic acid], the EC50 [1] is reported as < 100 nM, the IC50 [4] is reported as < 100 nM and the IC50 [2] is reported as < 10 nM. For the same compound, the IC50 [3] was < 10 nM.

With `Cc1c(NC(=O)c2nc3c(n2C)CCN(C)C3)cccc1-c1cccc(NC(=O)c2nc3c(n2C)CCN(C[C@H]2CC[C@@H](C(=O)O)CC2)C3)c1Cl` [Compound 18, cis-4-((2-((2-chloro-3′-(1,5-dimethyl-4,5,6,7-tetrahydro-1H-imidazo[4,5-c]pyfidine-2-caiboxamido)-2′-methyl-[1,1′-biphenyl]-3-yl)carbamoyl)-1-methyl-1,4,6,7-tetrahydro-5H-imidazo[4,5-c]pyridin-5-yl)methyl)cyclohexane-1-carboxylic acid] the EC50 [1] was < 100 nM, the IC50 [4] was < 100 nM and the IC50 [2] was < 10 nM. For the same compound, the IC50 [3] was < 10 nM.
